In the NIST ThermoML archive (doi:10.1021/acs.jced.8b00292):
± gives the expanded uncertainty stated by the source.

Key:
[1] = Crystal; DSC
[2] = Molar enthalpy of transition or fusion; conditions: Crystal; DSC

In the case of `Nc1nc(Cl)cc(Cl)n1` [2-amino-4,6-dichloropyrimidine], the Triple point temperature [1] is reported as 496.42 ± 1.2 K and the “Molar enthalpy of transition or fusion” value [2] is reported as 4.66 ± 0.215 kcal/mol.
